Results published in US6831101B2, “Tricyclic rantes receptor ligands” (Chemokine Therapeutics Corporation, priority 2001, dated 2004).

Experiments:
[1] = tested on: CCR-1, -3, -4, and -5 receptors on THP-1 cells; experiment: Competitive inhibition of 125I-RANTES binding to THP-1 cells; details: for % Inhibition (4 ug/ml) of 125I-RANTES binding: 4 ug/ml compound
Protocol: The binding studies were conducted using I^125 labeled RANTES as competitor and THP-1 cell lines.

[2] = tested on: RANTES-induced [Ca2+]i mobilization in THP-1 cells; experiment: Inhibition of RANTES-induced [Ca2+]i mobilization in THP-1 cells; type: cell-based
Protocol: A rapid, transient rise in the free cytosolic Ca^2+ concentration ([Ca^2+]i) is one of the events in neutrophil activation and is assumed to be involved in many of the subsequent cellular reactions. Both Ca^2+ release from intracellular stores and Ca^2+ influx from the extracellular space contribute to the rise in [Ca^2+]i. […] Fura-2,AM loaded THP-1 cells were incubated with CTCM189 for 60 min prior to induction of [Ca^2+]i mobilization by 10 nM RANTES.

[3] = tested on: murine Experimental Allergic Encephalomyelitis (EAE); experiment: EAE mouse model of multiple sclerosis, clinical severity grading; type: in vivo; details: 5, 20 and 40 mg/kg/day for 19 days, SJL/J mice, compared to control, FIG. 3
From the text: Experimental autoimmune encephalomyelitis (EAE) is a CD4^+ Th1-mediated inflammatory demyelinating disease of the central nervous system (CNS) that serves as a model for multiple sclerosis and other autoimmune diseases. It has previously been disclosed that RANTES regulates acute and relapsing autoimmune encephalomyelitis, and that RANTES production in the central nervous system is correlated with relapsing EAE development. In this example, the EAE mouse model (SJL/J mice) for MS is used, in which the disease is induced with Bordetella pertussis toxin (Claude C. A. et. al., (1975) Journal of Immunology 114(5): 1537-1540 and Hosseimi, H. et. al., (2000) Neurology 54 (7): A 166, An abstract presented in April 2000 on “Inhibition of proteosome prevents clinical signs in an experimental model of Multiple Sclerosis”).
Data for FIG. 3 was collected in an experiment involving five groups of 10 mice each, as follows: group I, normal control (no drug, no disease); group II, EAE control (MBP but no drug); group III, drug at 5 mg/kg body weight; group IV, drug at 20 mg/kg body weight; group V, drug at 40 mg/kg body weight. Three different concentrations of neoabietic acid were given to animals for 19 days: 5, 20, and 40 mg/kg/day in a volume of 100 ul Cremophore EL (Sigma). […]

Structure (SMILES)	% Inhibition (4 ug/ml) of 125I-RANTES binding [1]	IC50 ([1]; I125 labeled RANTES, THP-1 cells, data of FIG. 1, read-out: IC50, inhibition of binding of RANTES to THP-1 cells expressing CCR-1, -3, -4, and -5)	IC50 ([2]; Homo sapiens, Fura-2,AM loaded THP-1 cells, 60 min preincubation, 10 nM RANTES)	Inhibition of RANTES-induced [Ca2+]i mobilization at 5 uM ([2]; THP-1 cells, 5 uM compound)	Effect on clinical scores in EAE [3]
C=C[C@]1(C)C=C2CC[C@@H]3[C@](C)(CCC[C@@]3(C)C(=O)O)[C@H]2CC1 [B, Sandaraco-pimaric acid]	36%				
C=C[C@@]1(C)C=C2CC[C@@H]3[C@](C)(CCC[C@@]3(C)C(=O)O)[C@H]2CC1.N [C, Ammonium Pimarate]	48%				
CC(C)=C1C=C2CC[C@@H]3[C@](C)(CCC[C@@]3(C)C(=O)O)[C@H]2CC1 [Compound 1, 8(14), 13(15)-abietadien-18-oic-acid]	68%	253 nM	27.2 nM	almost complete inhibition	beneficial effect on the clinical scores
